For one assay, the system named is pERK expression. Kind of assay: pERK Western blot in cultured mouse keratinocytes. Type of assay: cell-based. The following applies: inhibitor 10 μM. On the procedure: Primary mouse keratinocytes were cultured following previous protocol (Chen et al. J. Biol. Chem. 2016, 291, 10252-10262). The epidermis from the back skin of newborn WT or keratinocyte-Trpv4 cKO mice was separated from the dermis by floating the skin on 0.25% trypsin (Gibco, Gaithersburg, MD) for 14-18 h at 4° C. Basal keratinocytes were separated from the cornified sheets by filtration through a […] cell strainer. Keratinocytes were plated on collagen I-coated dishes or glass coverslips and grown in EME media (Gibco, Gaithersburg, MD) containing 8% chelex (Bio-rad, Hercules, CA)-treated FBS with the final Ca^2+ adjusted to 0.05 mM, bovine pituitary extract (50 μg/mL), epidermal growth factor (5 ng/mL), and lx antibiotics/antimycotics (Gibco, Gaithersburg, MD) in a humidified incubator with 5% CO2 at 37° C. for 5-7 days until use. To knockdown Trpv4 in isolated keratinocytes from newborn keratinocyte-Trpv4 cKO mice, cells were treated with 4-OH tamoxifen at 500 nM for 72 h.
Western Blot. Routine procedures were followed (Chen et al. J. Biol. Chem. 2016, 291, 10252-10262, Chen et al. Pain 2014, 155, 2662-2672). […] Immunoblot band intensity was quantitated using the software Image J and ERK served as a control for pERK expression.
(In general: A western blot detects proteins with antibodies after separation by electrophoresis.)

Another assay deals with T1, hTRPV4 (Homo sapiens, UniProt Q9HBA0).
T1 construct: expressed in transfected cells; host or cells: HEK293 (ATCC CRL-1573)
Kind of assay: Single-channel recordings of hTRPV4 in HEK293 cells. It is filed as biochemical. The note with it: +60 mV; 100 nM GSK101 or 5 μM LPC 18:1. The protocol:
Cell culture and transfection. HEK293 cells (ATCC® CRL-1573) were cultured on poly-D-lysine coated coverslips in 24-well plate containing DMEM media with high-Glucose (Gibco, Gaithersburg, MD) supplemented with 10% fetal bovine serum (FBS, HyClone Laboratories, Logan, UT) and 100 U/mL of penicillin/streptomycin (Gibco, Gaithersburg, MD). Cell cultures were maintained with 5% of CO2 in a humidified incubator at 37° C. HEK cells were transfected with rat or human wild type or mutant TRPV4 channels with EGFP or YFP coupled to their C-termini (1.5 μg of plasmid for excised patch clamp and Ca^2+ imaging and 200 ng for single-channel experiments). The jetPEI™ Polyplus transfection reagent (Polyplus Transfection, New York, NY) for electrophysiology or Lipofectamine™ 2000 Reagent (Invitrogen, Waltham, MA) for Ca^2+ imaging were used for transfections per manufacturer's instructions as previously described (Chen et al. Pain 2014, 155, 2662-2672; Morales-Lazaro et al. Nat. Commun. 2016, 7, 13092). To investigate whether miR-146a can directly activate TRPV1 channels or indirectly via TLRs, HEK293 cells were transfected with rTRPV1 or co-transfected rTRPV1 with rTLR7, rTLR2, or rTLR6 (Addgene, Watertown, MA) for Ca^2+ imaging assay. Control cells were transfected with GFP or YFP.
For single-channel recordings, Borosilicate glass […]) pipettes were used. Recordings were obtained at +60 mV by acquiring several traces of 1-3 s duration. The effect of GSK1016790A or LPC 18:1 on single TRPV4 channels was studied in inside-out. Currents were filtered at 2 kHz and sampled at 5 kHz. […] Single-channel openings and closures were identified with the half-threshold crossing technique (Morales-Lazaro et al. Nat. Commun. 2016, 7, 13092). The channel open probability was calculated as the sum of the total open time divided by the sweep duration. Dwell times and amplitude histograms in the closed or open states were collected in logarithmic time histograms according to the Sine-Sigworth transformation (Sigworth et al. Biophys. J. 1987, 52, 1047-1054). Sums of three or two exponential components were fitted to histograms using a least-squares algorithm.

Another assay concerns the target rTRPV4-R746D (Rattus norvegicus, UniProt Q9ERZ8, R746D). The assay is described as follows: In vitro interaction (overlay) assay LPC-TRPV4-R746D. It is filed as binding. On the set-up: made in house; host or cells: HEK293 cells, surface protein fraction. The note with it: 200 pmol per spot. On the procedure:
In vitro interaction assays of LPC-TRPV4. Surface proteins were obtained from HEK293 cells transiently expressing rTRPV4-EGFP channels using the Pierce Cell Surface Isolation kit (Pierce Biotechnology, Rockford, IL) following the manufacturer's instructions. Overlay assays were performed as previously described (Morales-Lazaro et al. Nat. Commun. 2016, 7, 13092). In brief, LPC 18:1 was spotted (200 pmol per spot) onto a nitrocellulose membrane (GE Healthcare, Pittsburgh, PA) and then blocked with 1% fatty acid-free BSA (Calbiochem) and 6% fat-free dried milk in PBS. Membranes were then incubated with the surface protein solutions and exposed to anti-GFP antibody (Sigma, St. Louis, MO) diluted 1:1000 in 3% fat-free dried milk in PBST (with 0.1% of Tween). Membranes were incubated with horseradish peroxidase-conjugated secondary anti-rabbit antibody (Cell Signaling Technology) diluted 1:7500 in 6% fat-free dried milk in PBST. The binding of rTRPV4-EGFP and TRPV4-R746D-EGFP to the lipid-containing spots was visualized by chemiluminescence by exposing the blot for 15 min (Amersham Bioscience, Piscataway, NJ). Semi-quantitative densitometric analysis was done using ImageJ (NIH) and expressed as relative protein levels of TRPV4 bound to each spot.

The source of these data is US20240002846A1, “COMPOSITIONS AND METHODS FOR THE DIAGNOSIS AND TREATMENT OF ITCH” (Duke University, priority 2020, published 2024).

Entries after “also recorded” stand apart in the source; their conditions may differ.

T1 sequence (Q9HBA0 whole entry): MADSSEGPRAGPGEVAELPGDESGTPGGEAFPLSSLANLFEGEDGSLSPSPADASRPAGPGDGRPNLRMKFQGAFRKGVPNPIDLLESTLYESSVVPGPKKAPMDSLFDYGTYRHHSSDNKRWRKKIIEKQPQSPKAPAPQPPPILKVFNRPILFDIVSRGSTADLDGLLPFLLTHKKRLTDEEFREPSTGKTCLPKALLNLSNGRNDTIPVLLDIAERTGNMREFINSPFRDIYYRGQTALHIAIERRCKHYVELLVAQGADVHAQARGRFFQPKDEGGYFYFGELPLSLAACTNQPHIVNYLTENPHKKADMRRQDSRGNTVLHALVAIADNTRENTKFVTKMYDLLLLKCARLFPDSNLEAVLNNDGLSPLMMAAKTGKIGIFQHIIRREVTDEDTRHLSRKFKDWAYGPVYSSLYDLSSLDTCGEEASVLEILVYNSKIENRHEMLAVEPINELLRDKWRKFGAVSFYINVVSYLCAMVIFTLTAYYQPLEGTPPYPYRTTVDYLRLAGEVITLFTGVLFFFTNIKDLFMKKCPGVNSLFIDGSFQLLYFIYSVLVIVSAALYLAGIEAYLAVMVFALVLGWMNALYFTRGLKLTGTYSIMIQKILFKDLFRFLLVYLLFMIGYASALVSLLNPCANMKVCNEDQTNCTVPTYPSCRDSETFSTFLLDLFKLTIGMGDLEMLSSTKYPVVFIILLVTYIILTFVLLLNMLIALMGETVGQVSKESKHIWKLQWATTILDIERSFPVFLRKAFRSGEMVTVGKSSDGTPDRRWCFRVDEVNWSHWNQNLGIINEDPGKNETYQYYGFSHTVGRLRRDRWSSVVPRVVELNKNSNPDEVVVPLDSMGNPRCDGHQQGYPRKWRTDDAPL
Sequence of rTRPV4-R746D (Q9ERZ8 whole entry R746D): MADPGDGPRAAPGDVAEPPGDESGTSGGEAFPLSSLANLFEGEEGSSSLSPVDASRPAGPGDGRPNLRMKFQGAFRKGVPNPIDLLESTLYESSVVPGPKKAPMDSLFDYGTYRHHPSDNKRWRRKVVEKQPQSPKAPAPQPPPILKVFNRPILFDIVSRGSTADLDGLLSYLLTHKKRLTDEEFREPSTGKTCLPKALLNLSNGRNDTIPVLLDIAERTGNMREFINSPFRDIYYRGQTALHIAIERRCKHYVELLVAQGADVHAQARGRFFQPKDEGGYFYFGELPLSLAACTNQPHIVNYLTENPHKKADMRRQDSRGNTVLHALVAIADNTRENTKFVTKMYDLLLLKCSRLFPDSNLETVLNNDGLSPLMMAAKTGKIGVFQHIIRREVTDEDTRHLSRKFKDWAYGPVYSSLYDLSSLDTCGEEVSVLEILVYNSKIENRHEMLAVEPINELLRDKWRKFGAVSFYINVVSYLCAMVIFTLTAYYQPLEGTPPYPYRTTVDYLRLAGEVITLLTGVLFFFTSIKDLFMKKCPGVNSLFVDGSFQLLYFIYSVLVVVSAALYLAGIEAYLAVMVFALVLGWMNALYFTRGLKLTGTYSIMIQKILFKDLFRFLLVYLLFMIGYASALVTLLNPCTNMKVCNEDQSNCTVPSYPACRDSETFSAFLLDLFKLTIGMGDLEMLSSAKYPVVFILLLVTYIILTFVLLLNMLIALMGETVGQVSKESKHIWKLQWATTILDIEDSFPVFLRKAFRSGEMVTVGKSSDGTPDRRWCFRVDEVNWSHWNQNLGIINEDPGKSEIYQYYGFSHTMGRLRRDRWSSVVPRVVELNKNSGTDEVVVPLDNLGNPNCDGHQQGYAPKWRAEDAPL

Consider `Cc1c(C(=O)Nc2cccc(C(F)(F)F)c2)cc(-c2ccccc2)n1CCCN1CCOCC1` [HC067047], for which the “effect on LPC-increased pERK expression” value in the assay on pERK expression is listed as “eliminated the increase; also recorded: abolished”.
Regarding LPC 18:1, at hTRPV4, the “open level (single-channel) amplitude” value came out at 3.27±0.41 pA, the “open probability (Po)” value is listed as 0.75±0.08 and the “single channel conductance (gi)” value is 54.5 pS. For the same compound, the “binding of LPC 18:1 to rTRPV4-R746D relative to rTRPV4” value at rTRPV4-R746D is given as “significantly reduced binding”. For the same compound, on rTRPV4-R746D (listed as LPC (18:1)), the “binding of LPC 18:1 to rTRPV4-R746D relative to rTRPV4” value was “significant reduction of this interaction”.
